Source: patent publication US9573975B2, “Melanoma antigen peptide and uses thereof” (INSERM (INSTITUT NATIONAL DE LA SANTE ET DE LA RECHERCHE …, priority 2012, dated 2017)

Columns and labels:
[1] = tested on: CD4 T cells in PBMC from melanoma patients; assay: PBMC from melanoma patients stimulated with MELOE-1, restimulated with peptides, CD4/IFN-γ and CD4/IL4 staining; assay type: cell-based, human; conditions: for Th1 responses, share of tested microcultures: of 576 tested microcultures, melanoma patients; for melanoma patients with CD4 specific responses (mainly Th1, IFN-g production) / melanoma patients with Th2 responses: responding/tested patients; for melanoma patients with Th2 responses: IL4
Procedure: FIG. 2: (A) Percentages of cytokine producing CD4 T cells among positive microcultures. Fourteen days after PBMC stimulation with MELOE-1 whole polypeptide (2-46), microcultures were re-stimulated with each indicated peptide during 5 hours. IFN-γ (left panel) and IL4 (right panel) production was then assessed by a triple labeling IFN-γ-IL4-CD4. Results were analyzed with a non-parametric test (Kruskal-Wallis) followed by a Dunns post-test. (B) Frequency of microcultures containing CD4 T cells specific for MELOE-1 peptides (assessed by IFN-γ or IL4 intracellular staining after re-stimulation with the 3 indicated peptides). 576 microcultures (from 10 melanoma patients) were analyzed by a contingency table followed by a Fisher exact test.
PBMC from melanoma patients were stimulated with 10 μM of MELOE-1. After 14 days, the presence of CD4 T cells specific for the different regions of MELOE-1 was assessed by restimulating cells with MELOE-12-21, MELOE-111-30 and MELOE-122-46 peptides, followed by CD4/IFN-γ double staining for the detection of Th1 responses, and by CD4/IL4 double staining for Th2 responses. Between brackets is indicated the mean % of cytokine producing CD4 T cells, in positive microcultures.
(§1) PBMC from healthy donors or melanoma patients (2·10^5 cells/well) were cultured for 14 days with 10 μM of MELOE-1 whole antigen (46 amino acids) in RPMI medium supplemented with 8% HS, 50 IU/ml of rIL-2 (Chiron, France) and L-Glutamin, in 96-well multiplates. Micro cultures were then restimulated individually with each overlapping peptide (MELOE-12-21, MELOE-111-30, MELOE-118-37, MELOE-126-46 or MELOE-122-46 for melanoma patients) in the presence of 10 μg/mL brefeldin A for 5 hours and the percentage of CD4^+ specific T cells was assessed by TNF-α, IFN-γ or IL-4 intracellular staining A negative control without peptide was included in all experiments.
(§2) Lymphocytes were stimulated for 5 hours in the presence of brefeldin A (10 μg/mL) either with peptide alone (10 μM) in an autopresentation assay or with B-EBV or HLA-class II expressing melanoma cells pulsed 2 hours with the cognate peptide, at a ratio 1:2. In some experiments, blocking mAb against HLA-DP (clone B7.21 from Dr Charron, UMR940, Paris), HLA-DQ (clone SPVL3, Beckman Coulter) or HLA-DR (clone L243, BD Biosciences) were added at a concentration of 12.5 μg/ml. Cells were then stained with APC-conjugated anti-CD4 mAb, fixed with 4% paraformaldehyde, labeled with PE-conjugated anti-cytokine mAb and analyzed by flow cytometry.
In order to confirm the immunogenicity of each MELOE-1 regions in melanoma patients, we stimulated melanoma patients PBMC with the MELOE-1 whole protein, and tested the reactivity of stimulated lymphocytes towards the three most immunogenic regions: 2-21, 11-30, and 22-46. For this study, instead of challenging microcultures with the 18-37 peptide, that appeared poorly immunogenic, we extended the C-terminus region from 26-46 to 22-46, in order to also detect responses to our previously described HLA-DR11-restricted epitope (24-37). […] We tested the induction of CD4 specific responses from MELOE-1 stimulated PBMC of 10 melanoma patients. We documented CD4 responses specific for the central region of MELOE-1 (11-30) for 7/9 patients, whereas responses specific for MELOE-12-21 and MELOE-122-46 were respectively detected in 4/9 and 5/9 patients (Table III). These responses were mainly Th1 responses (IFN-g production) while less frequent Th2 responses specific for the three regions of MELOE-1 were detected in 3/9 patients for MELOE-12-21, 2/9 patients for MELOE-111-30 and 5/9 patients for MELOE-122-46 (Table III). […] Concerning Th2 responses, much less frequent, the C-term region appeared to induce more frequently the growth of IL-4 producing CD4 T cells than the two other regions (FIG. 2A). […]

[2] = tested on: CD4 T cells in PBMC from healthy donors; assay: PBMC from healthy donors stimulated with MELOE-1, restimulated with overlapping peptides, CD4/TNF-α staining; assay type: cell-based, human; conditions: for healthy donors in whom CD4 responses against the region were detected: seven healthy donors, TNFα production
Procedure: FIG. 1: (A) Percentages of TNF-α producing CD4 T cells among positive microcultures. Fourteen days after PBMC stimulation with MELOE-1 whole polypeptide (2-46), microcultures were re-stimulated with each indicated peptide during 5 hours. TNF-α production was then assessed by a double labeling TNF-α-CD4. Results were analyzed with a non-parametric test (Kruskal-Wallis) followed by a Dunns post-test. (B) Frequency of microcultures containing CD4 T cells specific for MELOE-1 peptides (assessed by TNF-α intracellular staining after re-stimulation with the 4 indicated peptides). 624 microcultures (from 7 healthy donors) were analyzed by a contingency table followed by a Fisher exact test.
PBMC from healthy donors were stimulated with 10 μM of MELOE-1. After 14 days, the presence of CD4 T cells specific for the different regions of MELOE-1 was assessed by restimulating cells with MELOE-12-21, MELOE-111-30, MELOE-118-37 and MELOE-126-46 peptides, followed by CD4/TNF-α double staining and flow cytometry analysis. Between brackets is indicated the mean % of TNF-α producing CD4 T cells, in positive microcultures. NA: not available.
as §1, §2
Our purpose was to look for the existence of class II helper epitopes all along MELOE-1 sequence (SEQ ID NO: 20), in order to document the immunogenicity of the different regions of this melanoma antigen. We stimulated 2·10^7 PBMC from seven healthy donors with MELOE-1 whole antigen and tested, after a 14-day culture period the presence of CD4 T cells specific for each region of the protein. Microcultures were screened for TNFα production by CD4+ T cells, after restimulation with four MELOE-1 derived overlapping peptides (Table I), in an autopresentation assay. […] On the contrary, the central region 18-37, containing an already described DR11-restricted epitope (24-37) located just at the end of this 20-mer peptide (Rogel et al., 2011), induced specific responses in microcultures deriving from only 2/7 donors (HD9 and HD17, both expressing the DR11 element). In these two donors, we detected 6 and 7% of positive microcultures, containing between 0.6 to 3.7% of TNFα producing CD4 T cells.

SCVGYPDEATSREQFLPSEG (SCVGYPDEATSREQFLPSEC) [MELOE-12-21]
mean % of cytokine producing CD4 T cells, in positive microcultures (IFN-γ, Th1) ([1]; Pt ≠ 1): (0.7%)
mean % of cytokine producing CD4 T cells, in positive microcultures (IFN-γ, Th1) ([1]; Pt ≠ 2): (0.8% ± 0.2)
mean % of cytokine producing CD4 T cells, in positive microcultures (IFN-γ, Th1) ([1]; Pt ≠ 3): (1.7% ± 2.9)
mean % of cytokine producing CD4 T cells, in positive microcultures (IL4, Th2) ([1]; Pt ≠ 4): (0.7%)
mean % of cytokine producing CD4 T cells, in positive microcultures (IFN-γ, Th1) ([1]; Pt ≠ 5): (0.6%)
mean % of cytokine producing CD4 T cells, in positive microcultures (IL4, Th2) ([1]; Pt ≠ 5): (0.7% ± 0.1)
mean % of cytokine producing CD4 T cells, in positive microcultures (IL4, Th2) ([1]; Pt ≠ 9): (0.6%)
Th1 responses, share of tested microcultures [1]: 3.3%
melanoma patients with CD4 specific responses (mainly Th1, IFN-g production) [1]: 4/9
melanoma patients with Th2 responses [1]: 3/9
positive microcultures ([2]; healthy donor HD28): 62%
healthy donors in whom CD4 responses against the region were detected [2]: 6/7

TSREQFLPSEGAACPPWHPS [MELOE-111-30]
mean % of cytokine producing CD4 T cells, in positive microcultures (IFN-γ, Th1) ([1]; Pt ≠ 1): (1.4% ± 0.7)
mean % of cytokine producing CD4 T cells, in positive microcultures (IL4, Th2) ([1]; Pt ≠ 1): (1%)
mean % of cytokine producing CD4 T cells, in positive microcultures (IFN-γ, Th1) ([1]; Pt ≠ 2): (1.6% ± 1.2)
mean % of cytokine producing CD4 T cells, in positive microcultures (IFN-γ, Th1) ([1]; Pt ≠ 3): (16.2% ± 33.2)
mean % of cytokine producing CD4 T cells, in positive microcultures (IFN-γ, Th1) ([1]; Pt ≠ 4): (0.9% ± 0.5)
mean % of cytokine producing CD4 T cells, in positive microcultures (IFN-γ, Th1) ([1]; Pt ≠ 5): (1.5% ± 1.1)
mean % of cytokine producing CD4 T cells, in positive microcultures (IFN-γ, Th1) ([1]; Pt ≠ 6): (1.5% ± 1.9)
mean % of cytokine producing CD4 T cells, in positive microcultures (IFN-γ, Th1) ([1]; Pt ≠ 8): (2.9% ± 0.04 )
mean % of cytokine producing CD4 T cells, in positive microcultures (IL4, Th2) ([1]; Pt ≠ 9): (0.6% ± 0.09)
Th1 responses, share of tested microcultures [1]: 10.8%
melanoma patients with CD4 specific responses (mainly Th1, IFN-g production) [1]: 7/9
melanoma patients with Th2 responses [1]: 2/9
mean % of TNF-α producing CD4 T cells, in positive microcultures ([2]; donor HD24): (2% ± 1.4)
mean % of TNF-α producing CD4 T cells, in positive microcultures ([2]; donor HD27): (5% ± 3.4)
frequency of positive microcultures versus the three other regions of MELOE-1 ([2]; healthy donors, Fisher exact test, p<0.0001): significantly higher
healthy donors in whom CD4 responses against the region were detected [2]: each tested donor
